# Data as given in PubChem BioAssay (NCI).
#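 These data come from cells grown in 96-well plates and exposed to compound for 48 hours at five concentrations. Abbreviation: GI50, concentration required for 50% inhibition of growth. TGI marks complete inhibition of growth.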
# What was measured:
# Assay in all cases: inhibition of tumour cell growth, NCI panel, 48 h
# DU-145 prostate = system: DU-145 prostate
# UO-31 renal = system: UO-31 renal
# A549 NSCLC = system: A549 NSCLC
# UACC-257 melanoma = system: UACC-257 melanoma
# HCT-116 colon = system: HCT-116 colon
# NCI-H226 lung = system: NCI-H226 lung
# RPMI-8226 leukemia = system: RPMI-8226 leukemia
# OVCAR-5 ovarian = system: OVCAR-5 ovarian
# NCI-H23 lung = system: NCI-H23 lung
# SF-539 CNS = system: SF-539 CNS
# HCC-2998 colon = system: HCC-2998 colon
# NCI/ADR-RES ovarian = system: NCI/ADR-RES ovarian
# OVCAR-8 ovarian = system: OVCAR-8 ovarian
# NCI-H460 lung = system: NCI-H460 lung
# MALME-3M melanoma = system: MALME-3M melanoma
# MDA-MB-435 = system: MDA-MB-435
# EKVX NSCLC = system: EKVX NSCLC
# LOX IMVI melanoma = system: LOX IMVI melanoma
# SN12C renal = system: SN12C renal
# HOP-92 NSCLC = system: HOP-92 NSCLC
# SW-620 colon = system: SW-620 colon
# NCI-H522 lung = system: NCI-H522 lung
# TK-10 renal = system: TK-10 renal
# MDA-MB-231 breast = system: MDA-MB-231 breast
# SK-MEL-5 melanoma = system: SK-MEL-5 melanoma
# A498 renal = system: A498 renal
# ACHN renal = system: ACHN renal
# T-47D breast = system: T-47D breast
# SK-MEL-2 melanoma = system: SK-MEL-2 melanoma
# M14 melanoma = system: M14 melanoma
# SK-OV-3 ovarian = system: SK-OV-3 ovarian
# HS 578T breast = system: HS 578T breast
# CCRF-CEM leukemia = system: CCRF-CEM leukemia
# OVCAR-3 ovarian = system: OVCAR-3 ovarian
# PC-3 prostate = system: PC-3 prostate
# SF-268 CNS = system: SF-268 CNS
# MOLT-4 leukemia = system: MOLT-4 leukemia
# SNB-75 CNS = system: SNB-75 CNS
# UACC-62 melanoma = system: UACC-62 melanoma
# IGROV1 ovarian = system: IGROV1 ovarian
# HT29 colon = system: HT29 colon
# KM12 colon = system: KM12 colon
# MCF7 breast = system: MCF7 breast
# HCT-15 colon = system: HCT-15 colon
# RXF 393 renal = system: RXF 393 renal
# CAKI-1 renal = system: CAKI-1 renal
# OVCAR-4 ovarian = system: OVCAR-4 ovarian
# BT-549 breast = system: BT-549 breast
# HL-60(TB) leukemia = system: HL-60(TB) leukemia
# SK-MEL-28 melanoma = system: SK-MEL-28 melanoma
# HOP-62 NSCLC = system: HOP-62 NSCLC
# U251 CNS = system: U251 CNS
# 786-0 renal = system: 786-0 renal
# K-562 leukemia = system: K-562 leukemia
# SNB-19 CNS = system: SNB-19 CNS
# SF-295 CNS = system: SF-295 CNS
# COLO 205 colon = system: COLO 205 colon
smiles,measurement,setting,value
CCCCCCCCCCNCCSS(=O)(=O)O,GI50,DU-145 prostate,1.82 µM
same,TGI,DU-145 prostate,3.28 µM
same,GI50,UO-31 renal,3.3 µM
same,TGI,UO-31 renal,12.9 µM
same,GI50,A549 NSCLC,2.1 µM
same,TGI,A549 NSCLC,5.27 µM
same,GI50,UACC-257 melanoma,7.88 µM
same,TGI,UACC-257 melanoma,22.4 µM
same,GI50,HCT-116 colon,2.01 µM
same,TGI,HCT-116 colon,3.85 µM
same,GI50,NCI-H226 lung,2.51 µM
same,TGI,NCI-H226 lung,5.16 µM
same,GI50,RPMI-8226 leukemia,2.2 µM
same,TGI,RPMI-8226 leukemia,5.7 µM
same,GI50,OVCAR-5 ovarian,2.27 µM
same,TGI,OVCAR-5 ovarian,4.24 µM
same,GI50,NCI-H23 lung,1.9 µM
same,TGI,NCI-H23 lung,4.49 µM
same,GI50,SF-539 CNS,2.31 µM
same,TGI,SF-539 CNS,5.21 µM
same,GI50,HCC-2998 colon,1.73 µM
same,TGI,HCC-2998 colon,3.19 µM
same,GI50,NCI/ADR-RES ovarian,2.11 µM
same,TGI,NCI/ADR-RES ovarian,4.37 µM
same,GI50,OVCAR-8 ovarian,2.12 µM
same,TGI,OVCAR-8 ovarian,4.68 µM
same,GI50,NCI-H460 lung,1.72 µM
same,TGI,NCI-H460 lung,3.22 µM
same,GI50,MALME-3M melanoma,5.83 µM
same,TGI,MALME-3M melanoma,19.6 µM
same,GI50,MDA-MB-435,1.14 µM
same,TGI,MDA-MB-435,2.91 µM
same,GI50,EKVX NSCLC,4.14 µM
same,TGI,EKVX NSCLC,19.2 µM
same,GI50,LOX IMVI melanoma,1.69 µM
same,TGI,LOX IMVI melanoma,3.26 µM
same,GI50,SN12C renal,1.86 µM
same,TGI,SN12C renal,3.6 µM
same,GI50,HOP-92 NSCLC,8.84 µM
same,TGI,HOP-92 NSCLC,25.7 µM
same,GI50,SW-620 colon,1.95 µM
same,TGI,SW-620 colon,4.32 µM
same,GI50,NCI-H522 lung,2.09 µM
same,TGI,NCI-H522 lung,4.31 µM
same,GI50,TK-10 renal,5.31 µM
same,TGI,TK-10 renal,17.7 µM
same,GI50,MDA-MB-231 breast,1.77 µM
same,TGI,MDA-MB-231 breast,3.69 µM
same,GI50,SK-MEL-5 melanoma,2.14 µM
same,TGI,SK-MEL-5 melanoma,5.59 µM
same,GI50,A498 renal,5.48 µM
same,TGI,A498 renal,19.9 µM
same,GI50,ACHN renal,10.1 µM
same,TGI,ACHN renal,25.4 µM
same,GI50,T-47D breast,10.9 µM
same,TGI,T-47D breast,29.5 µM
same,GI50,SK-MEL-2 melanoma,2.4 µM
same,TGI,SK-MEL-2 melanoma,6.63 µM
same,GI50,M14 melanoma,0.425 µM
same,TGI,M14 melanoma,2.64 µM
same,GI50,SK-OV-3 ovarian,2.6 µM
same,TGI,SK-OV-3 ovarian,7.58 µM
same,GI50,HS 578T breast,1.67 µM
same,TGI,HS 578T breast,3.6 µM
same,GI50,CCRF-CEM leukemia,1.86 µM
same,TGI,CCRF-CEM leukemia,3.98 µM
same,GI50,OVCAR-3 ovarian,1.98 µM
same,TGI,OVCAR-3 ovarian,3.46 µM
same,GI50,PC-3 prostate,1.98 µM
same,TGI,PC-3 prostate,4.07 µM
same,GI50,SF-268 CNS,1.22 µM
same,TGI,SF-268 CNS,2.52 µM
same,GI50,MOLT-4 leukemia,2.06 µM
same,TGI,MOLT-4 leukemia,4.92 µM
same,GI50,SNB-75 CNS,2.23 µM
same,TGI,SNB-75 CNS,4.22 µM
same,GI50,UACC-62 melanoma,1.42 µM
same,TGI,UACC-62 melanoma,3 µM
same,GI50,IGROV1 ovarian,4.82 µM
same,TGI,IGROV1 ovarian,17.6 µM
same,GI50,HT29 colon,2.21 µM
same,TGI,HT29 colon,4.79 µM
same,GI50,KM12 colon,1.55 µM
same,TGI,KM12 colon,2.95 µM
same,GI50,MCF7 breast,1.81 µM
same,TGI,MCF7 breast,3.38 µM
same,GI50,HCT-15 colon,3.97 µM
same,TGI,HCT-15 colon,17 µM
same,GI50,RXF 393 renal,2.21 µM
same,TGI,RXF 393 renal,3.91 µM
same,GI50,CAKI-1 renal,14.5 µM
same,TGI,CAKI-1 renal,33.3 µM
same,GI50,OVCAR-4 ovarian,9.91 µM
same,TGI,OVCAR-4 ovarian,24.4 µM
same,GI50,BT-549 breast,6.15 µM
same,TGI,BT-549 breast,21.8 µM
same,GI50,HL-60(TB) leukemia,1.76 µM
same,TGI,HL-60(TB) leukemia,3.74 µM
same,GI50,SK-MEL-28 melanoma,1.65 µM
same,TGI,SK-MEL-28 melanoma,4.84 µM
same,GI50,HOP-62 NSCLC,1.86 µM
same,TGI,HOP-62 NSCLC,3.58 µM
same,GI50,U251 CNS,1.99 µM
same,TGI,U251 CNS,4.12 µM
same,GI50,786-0 renal,4.55 µM
same,TGI,786-0 renal,14.3 µM
same,GI50,K-562 leukemia,2.61 µM
same,TGI,K-562 leukemia,7.28 µM
same,GI50,SNB-19 CNS,1.72 µM
same,TGI,SNB-19 CNS,3.24 µM
same,GI50,SF-295 CNS,1.83 µM
same,TGI,SF-295 CNS,3.65 µM
same,GI50,COLO 205 colon,13 µM
same,TGI,COLO 205 colon,27.2 µM
